Patent US5094783A, “Retinoid compounds” (UAB Research Foundation, priority 1990, dated 1992)

What was measured:
[1] = target: cellular retinoic acid binding protein (CRABP) from chick embryo skin; test: CRABP binding assay, I50 (dextran-coated charcoal); conditions: 50% inhibition of binding of 100 pmoles [3H] retinoic acid to CRABP, chick embryo skin extract (1 mg protein); X=CO2H
Experimental: A standard in vitro cellular retinoic acid binding protein (CRABP) assay was also conducted on the retinoids. The CRABP binding study measured the ability of retinoids to compete for the retinoic acid binding site on CRABP, also a good indicator of retinoid potency as a chemopreventive agent.
(§1) Aliquots (2 mg protein) of chick skin extracts were incubated with 300 pmoles of [^3 H] retinoic acid in the presence or absence of 100-fold molar excesses of the test compounds. The 2S CRABP peaks were determined from the radioactivity profiles obtained after sedimentation through 5 to 20% sucrose density gradients at 180,000×g for 18 hours (Sani et al., supra). […] Free radioactive retinoid was removed by absorption on dextran-coated charcoal. The I50 values of the test compounds were derived from the semilog plots of their molar concentrations versus the specifically bound [^3 H] retinoic acid to CRABP at the different concentrations of the test retinoids.

chick embryo skin CRABP = test: CRABP competition by sucrose density gradient sedimentation, 100-fold excess of retinoid; assay type: binding; conditions: 100-fold molar excess of test compound, 300 pmol [3H] retinoic acid, FIG. 1
Experimental: as §1

[2] = tested on: ornithine decarboxylase (ODC) induced by TPA in mouse epidermis; test: In vivo ODC assay: inhibition of TPA-induced ornithine decarboxylase activity in mouse epidermis; conditions: TPA-induced ODC activity in epidermis of CD-1 mice, single topical application of retinoid 30 to 60 min before TPA, skins collected 5 h after TPA; values normalized to TPA control of 10; X=CO2H
Experimental: An in vivo ODC assay was conducted using four configurational isomers of retinoid 7 with X=CO2 H to study their bioactivities with respect to prevention of tumors. The ODC assay measured the inhibition by retinoids of the induction of ornithine decarboxylase in mouse epidermis by phorbol ester (TPA), an indicator of retinoid potency as a chemopreventive agent.
A single application of TPA was made to the shaved backs of CD-1 mice 30 to 60 minutes after a single application of the test retinoid. Five hours after the application of TPA, the exposed skins from the back of the three animals in each group were collected, and the epidermal extracts prepared from each animal were pooled and assayed. In order to improve the counting efficiency of radio-labeled product formed in the assay, the specific activity of ^14 C-ornithine was increased five-fold; the assay was terminated by the addition of citric acid at 45 minutes to ensure linear kinetics.

mouse skin papilloma = test: Mouse papilloma assay (tumor formation after DMBA initiation); assay type: in vivo; conditions: initiation with DMBA, X=CO2H
Source text: This assay measured the inhibition of tumor formation following initiation with dimethylbenz(a)anthracene (DMBA).

Structure (SMILES) | IC50 [1] [nM] | inhibition of [3H] retinoic acid-binding to CRABP (relative binding affinity as compared to retinoic acid) (chick embryo skin CRABP) [%] | ODC Assay (nmol CO2/30 min./mg protein) [2] | tumor production, % of controls (mouse skin papilloma)
CC1=C(C(C)C)/C(=C/C(C)=C\C=C\C(C)=C\C(=O)O)CCC1 [(9Z)-7] | 2800 | 0 | > 100 nmol CO2/30 min./mg protein | 
CC1=C(C(C)C)/C(=C/C(C)=C\C=C\C(C)=C/C(=O)O)CCC1 [(9Z,13Z)-7] | 4900 | 0 | > 100 nmol CO2/30 min./mg protein | 
CC1=C(C(C)C)/C(=C/C(C)=C/C=C/C(C)=C\C(=O)O)CCC1 [(13Z)-7] | 500 | 70 | 1.0 nmol CO2/30 min./mg protein | 
CC1=C(C(C)C)/C(=C/C(C)=C/C=C/C(C)=C/C(=O)O)CCC1 [(all E)-7] | 400 | 100 | 0.5 nmol CO2/30 min./mg protein | 20 % of controls
CC1=C(/C=C/C(C)=C/C=C/C(C)=C/C(=O)O)C(C)(C)CCC1 [all-E retinoic acid, reference compound] | 900 | 100 | 0.5 nmol CO2/30 min./mg protein | 11 % of controls
